Consider 1 substance from US7598028B2, “Compositions and methods for detecting and treating prostate disorders” (The Regents of the University of Michigan, priority 2006, dated 2009).

Type in all cases: cell-based, human
The subject of assay [1] is N1 prostate fibroblast cells. The assay can be described thus: Proliferation assay, add back, N1 fibroblasts. Particulars: add back of exogenous chemokine, 96 hours. The source says:
FIG. 6C describes how CXCL1, CXCL5, CXCL6, and CXCL12 stimulate N15C6 prostate epithelial cell proliferation, N1 prostate fibroblast cell proliferation, and LNCaP prostate epithelial cell proliferation compared to serum-free (SF HIE) media alone. “Add back” assays were next performed to determine whether the addition of exogenous CXCL1, CXCL5, CXCL6, and CXCL12 to defined, serum-free media induced […] or LNCaP prostate epithelial or N1 fibroblast cell proliferation. For these and all experiments utilizing N15C6 and LNCaP cells, the N15C6 and N1 cells were used between passage 35-45, and LNCaP cells between passages 25-35, for consistency. All recombinant CXC proteins were obtained from R&D systems (e.g., CXCL1, #275-GR, CXCL5, #254-X; CXCL6, #333-GC, and SDF1 alpha/CXCL12, #350-NS). Cells were plated at 50,000 cells/well in triplicate, treated for 96 hours, and counted. […] Moreover, the concentrations for CXCL1, CXCL5, CXCL6 and CXCL12 observed to be growth-stimulatory for prostate epithelial cells were similar to those secreted into the media by older prostate stromal fibroblasts (see, e.g., FIGS. 6A and 6B).

Assay [2] deals with BPH-1 prostate epithelial cells. Briefly: Proliferation assay, BPH-1. Particulars: 0.001-1 nM CXCL5, p<0.05. The protocol: (§1) Proliferation Assays. Cellular proliferation was assessed after plating cells at 50,000 cell/well in triplicate in six well plates and counting cells after 24 and 96 hours of incubation as described previously (see, e.g., Begley L, et al., Genes Chromosomes Cancer. 2006 February; 45(2): 136-46; herein incorporated by reference in its entirety). To assess the effects of exogenous CXCL5 on cellular proliferation, recombinant human CXCL5 (R&D Systems, 254-X) was added at the desired concentration in 2 ml SF media (or 2 ml SF media alone for control) to each well. The cells were re-fed at 24 hours growth and counted at 24 and 96 hours growth. Cell counts were normalized to 50,000 cells at 24 hours to account for any plating discrepancies. Averages and standard deviations of cell number were calculated for each time point under each media condition. For the antibody blockade experiments, 10,000 cells per well were plated in triplicate in 24 well dishes and preincubated with mouse anti-human CXCR2 (Biosource AHR1532X) or mouse antihuman CXCR4 (BD Pharmingen 555971) at 1 ug/ml for 1 hour prior to CXCL5 addition. Cells were maintained in media containing appropriate antibodies for the entirety of the experiment and were counted at 24 and 96 hours as above.

For assay [3], the system named is 22Rv1 prostate epithelial cells. Briefly: Proliferation assay, 22Rv1. To be noted: 0.001-1 nM CXCL5, p<0.05. The protocol: as §1
In assay [4] the test system is PC3 prostate epithelial cells. The assay can be described thus: Proliferation assay, PC3. To be noted: 0.001-1 nM CXCL5, p<0.05. The protocol:
as §1

Another assay concerns p65 subunit of NF-kappaB. The assay can be described thus: Western blot, p65 phosphorylation in N15C6 cells. To be noted: 10 pM, 100 pM or 1 nM CXCL5 tested. The protocol: Western blot analysis Cells were lysed, proteins resolved by electrophoresis and electroblotting was carried out as described previously (Chaib H, et al., (2001) Cancer Res. 61, 2390-2394; incorporated herein by reference in its entirety). Proteins were detected using antibodies against phospho-ERK½ (Cell Signaling no. 9101), total ERK½ (Cell Signaling, no. 9102), CXCR4 (Abcam no. ab2074), CXCR7 (Abcam #Ab12870, Abcam #Ab12871, Abcam #38089), phospho-p65 (Rockland no. 100-401-264), total p65 (Rockland no. 100-4165), or beta-actin (Santa Cruz no. sc-1615), in conjunction with an ECL detection system.
Western Blot and Protein Analysis. […] Proteins were detected using antibodies against phospho-ERK½ (Cell Signaling #9101), total ERK½ (Cell Signaling, #9102), phospho-p65, (Rockland #100-401-264), total p65 (Rockland #100-4165), STAT3 (9139), phospho-STAT3 (9138), beta-actin (Santa Cruz #sc-1615), or tubulin (Upstate, #DM1A) in conjunction with an ECL detection system. […] Densitometric quantitation of immunoblot films was accomplished by scanning the original films and converting the .tiff files to grayscale. Images were inverted, and mean band intensities were measured using ImageJ (www, followed by, .nih.gov). The mean intensity of adjacent background was also measured for each band and subtracted from band intensity.
Background: A western blot detects proteins with antibodies after separation by electrophoresis.

The next assay deals with STAT3. The assay can be described thus: Western blot, STAT3 phosphorylation in N15C6 cells. Particulars: 10 pM, 100 pM or 1 nM CXCL5. The protocol: (§2) Western Blot and Protein Analysis. Cells were lysed, proteins resolved by electrophoresis, and electroblotting was carried out as described previously except that 20 ug protein was electrophoresed per gel lane for N15C6 cells and 100 ug protein for LNCaP cells (see, e.g., Begley L, et al., Aging Cell. 2005 December; 4(6):291-8; Begley L A, et al., J Biol. Chem. 2007 Sep. 14; 282(37):26767-74; each herein incorporated by reference in their entireties). Proteins were detected using antibodies against phospho-ERK½ (Cell Signaling #9101), total ERK½ (Cell Signaling, #9102), phospho-p65, (Rockland #100-401-264), total p65 (Rockland #100-4165), STAT3 (9139), phospho-STAT3 (9138), beta-actin (Santa Cruz #sc-1615), or tubulin (Upstate, #DM1A) in conjunction with an ECL detection system. Secondary antibodies included goat anti-rabbit (Cell Signaling, #7074) and goat anti-mouse (Santa Cruz, #SC-2005), and both were used at a 1:5000 concentration. Immunoblots shown are representative of triplicate experiments. Densitometric quantitation of immunoblot films was accomplished by scanning the original films and converting the .tiff files to grayscale. Images were inverted, and mean band intensities were measured using ImageJ (www, followed by, .nih.gov). The mean intensity of adjacent background was also measured for each band and subtracted from band intensity.

The subject of the next assay is ERK ½. The assay can be described thus: Western blot, ERK phosphorylation in LNCaP cells. The protocol: Western Blot Analysis. Cells were lysed, proteins resolved by electrophoresis, and electroblotting was carried out as described previously (see, e.g.; Chaib H, et al., 2001 Cancer Res. 61, 2390-2394; incorporated herein by reference in its entirety). Proteins were detected using antibodies against phospho-ERK½ (Cell Signaling #9101), total ERK½ (Cell Signaling #9102), CXCR4 (Abcam #ab2074), Elk-1 (Cell Signaling #9182), Phospho Elk-1 (Cell Signaling #9181), or beta-actin (Santa Cruz #sc-1615), in conjunction with an ECL detection system.
as §2

With “CXCL5: recombinant human CXCL5 (R&D Systems, 254-X), CXC-type chemokine”, the “cell proliferation compared to serum-free (SF HIE) media alone” value in assay [1] is on record as “stimulate”. Moreover, the “proliferation versus SF media alone” value in assay [2], in assay [3] and in assay [4] was “significantly higher” in each case. Moreover, the NFkappaB subunit activation entry in the assay with p65 subunit of NF-kappaB is reported as “evident only after treatment with 1 nM CXCL5”. Moreover, in the assay on STAT3, the STAT3 phosphorylation result is “rapidly and transiently phosphorylated”. Also, the “ERK ½ phosphorylation” value in the assay on ERK ½ (10 pM or 100 pM CXCL5) is “rapidly and transiently phosphorylated”. Also, the “activation of ERK ½” value with ERK ½ (nanomolar levels of CXCL5) is reported as “not evident”.
